Counter-ions that a name gives are not always drawn.

The term IC50 denotes the midpoint of a concentration-inhibition curve.

The assay concerns the target T1, human recombinant DPIV enzyme (Homo sapiens, UniProt P27487).
T1 construct: Secreted DPIV (lacking membrane anchor) is enriched from HEK293 cell culture supernatant; made in house; host or cells: HEK293
The assay can be described thus: Human Recombinant DPIV Activity Assay (fluorometric end point, Gly-Pro-AMC substrate). Format: biochemical. As to conditions: enriched human recombinant DPIV, Gly-Pro-AMC 0.02 mM, 12 points concentration response curve. The procedure:
Human Recombinant DPIV Activity Assay The DPIV assay uses a fluorometric end point assay (excitation 355 nm; emission 460 nm), enriched human recombinant DPIV enzyme (21.3 μU/μl), and Gly-Pro-AMC (Bachem I-1225) as substrate (0.02 mM). Secreted DPIV (lacking membrane anchor) is enriched from HEK293 cell culture supernatant by ultrafiltration, ultra-centrifugation, and size-exclusion chromatography. IC50 values of the compounds are calculated based on a 12 points concentration response curve. Each concentration is measured in duplicate. The assay is validated by plate variability and conformity, inter-plate variability, signal window, and minimum significant ration of IC50. A MSR is calculated based on a test/retest analysis and a retrospective analysis. The MSR value is 1.8.

T1 sequence (P27487 29-766 limits assumed): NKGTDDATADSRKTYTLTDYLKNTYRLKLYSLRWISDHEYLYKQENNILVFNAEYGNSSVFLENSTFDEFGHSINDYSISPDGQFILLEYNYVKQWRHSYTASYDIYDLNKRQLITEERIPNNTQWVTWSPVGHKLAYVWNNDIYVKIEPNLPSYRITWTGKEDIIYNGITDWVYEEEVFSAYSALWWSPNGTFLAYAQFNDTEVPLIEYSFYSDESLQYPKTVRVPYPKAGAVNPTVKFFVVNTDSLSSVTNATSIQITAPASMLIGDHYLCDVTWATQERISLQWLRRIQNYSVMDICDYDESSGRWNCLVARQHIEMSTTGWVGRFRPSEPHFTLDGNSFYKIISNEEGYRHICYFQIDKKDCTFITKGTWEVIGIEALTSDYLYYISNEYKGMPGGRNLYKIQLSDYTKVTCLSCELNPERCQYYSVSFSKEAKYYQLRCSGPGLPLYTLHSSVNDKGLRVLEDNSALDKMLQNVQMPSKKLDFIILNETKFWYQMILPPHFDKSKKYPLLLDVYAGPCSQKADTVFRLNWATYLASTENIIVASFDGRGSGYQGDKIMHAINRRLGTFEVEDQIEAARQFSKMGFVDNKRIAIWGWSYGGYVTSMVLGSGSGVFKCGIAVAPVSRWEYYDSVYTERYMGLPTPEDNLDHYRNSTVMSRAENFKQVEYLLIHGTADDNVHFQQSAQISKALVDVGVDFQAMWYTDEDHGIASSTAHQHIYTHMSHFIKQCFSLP

As to `COc1ccc(C(=O)NC(C)(C)C)c(C[C@H](O)[C@H](N)Cc2ccccc2F)c1` [Example 6, 2-[(2S,3R)-3-Amino-4-(2-fluoro-phenyl)-2-hydroxy-butyl]-N-tert-butyl-4-methoxy-benzamide Hydrochloride], the half-inhibitory concentration (IC50) was found to be 98 nM.

With `CC(C)(C)NC(=O)c1cc(Cl)ccc1C[C@H](O)[C@H](N)Cc1ccccc1F` [Example 7, 2-[(2S,3R)-3-Amino-4-(2-fluoro-phenyl)-2-hydroxy-butyl]-N-tert-butyl-5-chloro-benzamide Hydrochloride], the IC50 came out at 134 nM.

These data come from patent US8076514B2, “Phenyl compounds and their use in the treatment of Type II diabetes” (Eli Lilly and Company, priority 2005, dated 2011).
